According to PubChem BioAssay (NCI):
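How tested: cells in 96-well plates exposed to compound for 48 hours at five concentrations. Definition used: TGI = concentration required for complete inhibition of growth.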

What was measured:
Assay in all cases: inhibition of tumour cell growth, NCI panel, 48 h
HCT-15 colon = test system: HCT-15 colon
RXF 393 renal = test system: RXF 393 renal
HT29 colon = test system: HT29 colon
OVCAR-3 ovarian = test system: OVCAR-3 ovarian
RPMI-8226 leukemia = test system: RPMI-8226 leukemia
SR leukemia = test system: SR leukemia
NCI-H23 lung = test system: NCI-H23 lung
NCI-H226 lung = test system: NCI-H226 lung
OVCAR-8 ovarian = test system: OVCAR-8 ovarian
LOX IMVI melanoma = test system: LOX IMVI melanoma
HCT-116 colon = test system: HCT-116 colon
IGROV1 ovarian = test system: IGROV1 ovarian
HOP-92 NSCLC = test system: HOP-92 NSCLC
786-0 renal = test system: 786-0 renal
TK-10 renal = test system: TK-10 renal
U251 CNS = test system: U251 CNS
A498 renal = test system: A498 renal
NCI-H522 lung = test system: NCI-H522 lung

SMILES	TGI (HCT-15 colon)	TGI (RXF 393 renal)	TGI (HT29 colon)	TGI (OVCAR-3 ovarian)	TGI (RPMI-8226 leukemia)	TGI (SR leukemia)	TGI (NCI-H23 lung)	TGI (NCI-H226 lung)	TGI (OVCAR-8 ovarian)	TGI (LOX IMVI melanoma)	TGI (HCT-116 colon)	TGI (IGROV1 ovarian)	TGI (HOP-92 NSCLC)	TGI (786-0 renal)	TGI (TK-10 renal)	TGI (U251 CNS)	TGI (A498 renal)	TGI (NCI-H522 lung)
CCN(CC)CCn1c2cc3c(cc2c(=O)c2cccnc21)OCO3	> 10 µM	> 10 µM	> 10 µM	> 10 µM	> 10 µM	> 10 µM	> 10 µM	> 10 µM	> 10 µM	> 10 µM	> 10 µM	> 10 µM	> 10 µM	> 10 µM	> 10 µM	> 10 µM	> 10 µM	> 10 µM
CCOC(=O)CCC(NC(=O)c1ccc(Nc2nc3ccccc3n3cccc23)cc1)C(=O)OCC (stereo not drawn)	> 100 µM	32.8 µM	> 100 µM	44.6 µM	> 100 µM	> 100 µM	> 100 µM	–	77.9 µM	> 100 µM	> 100 µM	> 100 µM	> 100 µM	33.2 µM	64.7 µM	62.3 µM	> 100 µM	60 µM
COC(=O)[C@]12CCC(C)(C)C[C@H]1C1=CC[C@@H]3[C@@]4(C)CC[C@H](OC5OC(CO)C(O)C(O)C5OC5OC(CO)C(O)C(O)C5O)C(C)(C)[C@@H]4CC[C@@]3(C)[C@]1(C)CC2 (stereo partly drawn)	25 µM	19.7 µM	22.1 µM	22.4 µM	48.3 µM	26.8 µM	19.6 µM	14.5 µM	34 µM	20.2 µM	18.7 µM	28.7 µM	13 µM	23.8 µM	–	26.3 µM	23.5 µM	8.71 µM
CC(C)Oc1ccc(CNC2=NCCO2)c2ccccc12	29.8 µM	28.3 µM	16.3 µM	–	28.3 µM	26.3 µM	30.2 µM	33 µM	31.9 µM	–	27 µM	27.9 µM	–	26.4 µM	30.2 µM	32.1 µM	23 µM	–
CN1C(=O)[C@@H]2N(CSC2(C)C)C1=S	> 100 µM	> 100 µM	> 100 µM	> 100 µM	> 100 µM	> 100 µM	> 100 µM	> 100 µM	> 100 µM	–	> 100 µM	> 100 µM	> 100 µM	> 100 µM	> 100 µM	> 100 µM	> 100 µM	> 100 µM
COc1ccccc1N1C(=O)CS(=O)(=O)C1c1cccc(Oc2ccccc2)c1 (stereo not drawn)	36.2 µM	38.8 µM	44.1 µM	41.2 µM	–	28.2 µM	37.3 µM	31.8 µM	34.3 µM	36.1 µM	27.3 µM	–	24.7 µM	34.9 µM	33.8 µM	29.7 µM	34.6 µM	29.3 µM
CN1C(=O)c2c(c3c4ccccc4n(C4OC(CO)C(O)C(O)C4O)c3c3[nH]c4ccccc4c23)C1=O (stereo not drawn)	17.4 µM	8.96 µM	9.52 µM	5.37 µM	59.8 µM	1.2 µM	9.6 µM	–	4.19 µM	5.49 µM	2.88 µM	4.1 µM	5.86 µM	7.31 µM	13.7 µM	10.8 µM	3.26 µM	1.66 µM
CC[C@H](C)C1=C(O)[N@+]2([O-])Oc3ccc(-c4c(O)c(O)c(-c5ccc(OC(C)=O)cc5)c(OC(C)=O)c4OC(C)=O)cc3O[C@]2([C@@H](C)CC)C(=O)N1O	> 50 µM	> 50 µM	> 50 µM	> 50 µM	42 µM	33 µM	> 50 µM	–	> 50 µM	> 50 µM	17.8 µM	18.6 µM	45.8 µM	> 50 µM	> 50 µM	> 50 µM	> 50 µM	18 µM
C/C1=C\[C@H](C)C[C@H](C)OC(=O)C[C@H](c2ccc(O)cc2)NC(=O)[C@H](Cc2ccc(O)c(Br)c2)N(C)C(=O)[C@H](C)NC(=O)[C@@H](C)C1	> 25 µM	–	> 25 µM	> 25 µM	> 25 µM	> 25 µM	> 25 µM	> 25 µM	> 25 µM	> 25 µM	> 25 µM	> 25 µM	> 25 µM	> 25 µM	> 25 µM	> 25 µM	> 25 µM	> 25 µM
CC(C)[Si](OC1=C(C(=O)N(C)c2ccccc2Cl)CCCC1)(C(C)C)C(C)C	31.2 µM	30.1 µM	32.3 µM	27.5 µM	55.4 µM	24.1 µM	31.4 µM	31 µM	30.2 µM	30 µM	–	31.4 µM	26.3 µM	34.6 µM	29.5 µM	25.8 µM	31 µM	19.2 µM
c1ccc(N=c2sc3ccccc3sc2=Nc2ccccc2)cc1	3.57 µM	3.49 µM	3.86 µM	–	> 100 µM	> 100 µM	3.82 µM	9.3 µM	4.08 µM	3.43 µM	3.18 µM	3.08 µM	9.93 µM	3.14 µM	12.9 µM	3.3 µM	5.65 µM	2.95 µM
Cc1nc2ccccc2c(=O)n1NC(=S)Nc1cccc(Cl)c1	> 100 µM	> 100 µM	> 100 µM	–	> 100 µM	> 100 µM	> 100 µM	> 100 µM	> 100 µM	> 100 µM	> 100 µM	> 100 µM	> 100 µM	> 100 µM	> 100 µM	> 100 µM	> 100 µM	> 100 µM
O=C(Nc1sccc1S(=O)(=O)c1ccc(Cl)cc1)C(F)(F)F	> 100 µM	–	> 100 µM	> 100 µM	31.4 µM	58.3 µM	> 100 µM	> 100 µM	> 100 µM	> 100 µM	37 µM	> 100 µM	> 100 µM	> 100 µM	> 100 µM	> 100 µM	> 100 µM	> 100 µM
